The assay has as its system Jurkat human T-leukemia. Nature of the assay: Thapsigargin-induced death of Jurkat cells, ATP content assay. Particulars: 25 μM. In kind it is cell-based. The procedure: To explore whether compounds broadly protect cells of various lineages versus only neuronal cells, we tested all 26 hits for ability to rescue CSM14.1 (neuronal), and Jurkat (lymphoid), cell lines from cell death induced by TG. […] CSM 14.1 (FIG. 15, left) and Jurkat cells (FIG. 15, right) were cultured overnight at 3,000 cells per well or at 30,000 cells per well, respectively, in 96-well plates. Wells received DMSO alone or 25 μM compounds in DMSO, followed by treatment with or without TG (15 μM). After culturing for 24 hrs, ATP content was determined, expressing data as a percentage control relative to cells treated only with DMSO (mean ±SD; n=3). The data reveal that one of the compounds protects CSM14.1 but not Jurkat cells from TG-induced cell death (as measured by the ATPlite assay). […]
In addition to CSM14.1 cells, when tested at 25 μM, Compound 5962123 protected by >50% against thapsigargin-induced death of several tumor cell lines (HeLa human cervical cancer, SW1 melanoma cell, PPC1, human prostate cancer), mouse neural stem cell C17.2 (both differentiated [neuronal phenotype] and non-differentiated [stem cell phenotype]) as determined by ATP content assay, and primary rat cortical neurons as determined by microscopy assay measuring the percentage of NeuN-immunopositive cells with either normal or apoptotic nuclear morphology (Hoechst dye staining). […]

We go through one molecule from patent US20080293699A1, “Inhibitors of thapsigargin-induced cell death” (priority 2007, published 2008).

“Also recorded” adds a separate entry of the source.

Regarding `CCN(CC)c1ccc(C2Nc3ccccc3NC3=C2C(=O)CC(c2ccccc2)C3)cc1` (stereo not shown) [Compound 5962123, 6-(4-diethylaminophenyl)-9-phenyl-5,6,8,9,10,11-hexahydrobenzo[c][1,5]benzodiazepin-7-one], the “Protection of Jurkat cells from thapsigargin-induced cell death” value was “does not protect; also recorded: inactive”.
